Tests used:
[1] = Permeability and efflux transporter substrate evaluation in Caco-2 cells; format: in vitro ADME; parameters: Papp A→B at 120 min / Papp B→A at 120 min / efflux ratio at 120 min / Papp at 120 min: dose or concentration left out as unconfirmed; details: human; for Papp at 120 min: Caco-2, pH 7.4, read-out: Classification Permeability; for Papp A→B at 120 min / Papp B→A at 120 min: pH 7.4, pH 7.40; for Papp A→B at 120 min: Caco-2, apical to basolateral; for Papp B→A at 120 min: Caco-2, basolateral to apical
Procedure: (§1) The cells were cultured in a carbon dioxide incubator for 21-28 days before being used for transport experiments. During this period, the culture medium was changed every four to five days.
(§2) This project uses Hank's balanced salt buffer (pH 7.40±0.05) containing 10 mM HEPES as the transport buffer. The culture medium was removed from the culture plate and the cells were washed twice with preheated transport buffer (approximately 75 μL and 40 mL of transport buffer for each apical well and basolateral receiver plate respectively). The donor solution and receiver solution were added to the corresponding cell plate wells (75 and 250 μL for each apical and basolateral well respectively), and the bidirectional transport experiment was started (apical to basolateral (A-B) and basolateral to apical (B-A)). The test concentration of the test substance was […], and two replicate wells were made for each dosing concentration. The test concentration of Digoxin was […], with dosing bidirectionally; the test concentrations of nadolol and metoprolol were both […], and they were dosed in one direction (A-B direction), and two replicate wells were made for each of the three control compounds.
(§3) The initial donor solution is the TO sample. After adding the sample, it was mixed with the transport buffer and stop solution in a certain proportion.
(§4) All samples were vortexed, and then centrifuged at 3220×g for 20 min at 20° C. A proper volume of supernatant was transferred to a sample assay plate, and the sample was stored at 2-8° C. if it was not analyzed immediately after the plate was sealed, and LC MS/MS method was used for analysis.
(§5) The Lucifer Yellow Rejection Assay was used to test the integrity of the Caco-2 cell layer.
(§6) The following formulas were used to calculate the apparent permeability coefficient (Papp, cm/s), efflux ratio (ER), and solution recovery (%) (% Solution Recovery).
(§7) [formula] [formula] [formula] • VR is the volume of the receiver side solution (side A is 0.075 mL, side B is 0.25 mL); Area is the relative surface area of the cell monolayer (0.0804 cm^2); Time is the incubation time (7200 s); C0 is the initial concentration (nM) of the test substance at the donor side or the peak area ratio of the control compound; VD is the volume of the donor side (side A is 0.075 mL, side B is 0.25 mL); CD and CR are the final concentration (nM) of the test substance at the donor side and the receiver side respectively or the peak area ratio of the control compound; • Lucifer yellow transmittance rate (% Lucifer Yellow) is calculated using the following formula:
(§8) [formula] • RFUApical and RFUBasolateral are the relative fluorescence intensity of lucifer yellow at the apical and basolateral sides respectively. VApical and VBasolateral are the sample loading volumes at the apical and basolateral sides respectively (0.075 and 0.25 mL respectively).

Caco-2 cells = experiment: as above; format: in vitro ADME; parameters: Papp A→B at 120 min / Papp B→A at 120 min / efflux ratio at 120 min / Papp at 120 min: dose or concentration left out as unconfirmed; details: Caco-2
Procedure: as §1, §2, §3, §4, §5, §6, §7, §8

[2] = Metabolic stability in mouse liver microsomes; format: in vitro ADME
Procedure: (§9) a. Preparation of phosphate buffer: The phosphate buffer powder was dissolved in 100 mL of pure water to prepare a phosphate buffer solution with a pH of 7.4 and a concentration of 100 mM, which was stored in a 4° C. refrigerator for later use.
(§10) b. All samples as well as the reference testosterone were dissolved in DMSO to obtain a 10 mM stock solution. The 10 mM stock solution was diluted to 100 μM with acetonitrile to obtain a working solution for later use.
(§11) c. Preparation of liver microsome working solution: Each of the mouse, rat and human liver microsome stock solutions (at concentration of 20 mg/mL) was taken and diluted to 0.56 mg/mL with 100 mM phosphate buffer solution to obtain the liver microsome working solution.
(§12) d. Preparation of solution: An appropriate amount of MgCl2 was weighed and used to prepare a MgCl2 solution at a concentration of 60 mM using 100 mM phosphate buffer solution. An appropriate amount of NADPH was weighed and used to prepare a NADPH solution at a concentration of 20 mM using 100 mM phosphate buffer solution. An equal volume of 60 mM MgCl2 solution was added to prepare an NADPH working solution containing 10 mM NADPH and 30 mM MgCl2. An acetonitrile solution containing 20 ng/mL tolbutamide was prepared as the stop solution.
(§13) e. Liver microsome incubation: 2 μL of each compound and the positive drug testosterone working solution were added to 178 μL of liver microsome working solution (0.56 mg/mL), mixed gently, and pre-incubated in a vibrating constant temperature water bath pot at 37° C. for 10 min. After adding 20 μL of NADPH working solution, the mixture was placed in a vibrating constant temperature water bath pot at 37° C. and timed incubation was started for 5, 10, 20, 30 and 60 min.
(§14) f. Stopping reaction: After the corresponding time of incubation, 400 μL of stop solution was added to stop the reaction, and then the sample was immediately shaken for 1 min. The sample was centrifuged at 13500 rpm for 10 min at 10° C. After centrifugation, the supernatant was removed, diluted with water according to the needs of each compound, and analyzed by LC-MS. For the 0-minute sample, the stop solution was first added and mixed evenly with the liver microsomes, and then the NADPH working solution was added. For the negative control sample, 20 μL of 30 mM MgCl2 solution was added instead of the NADPH working solution.
(§15) T1/2 and CLint(mic) were calculated by the following formula.
(§16) [formula] [formula] • CLint(mic)=0.693/T1/2/liver microsomal protein concentration during incubation (mg/mL) • CLint(ver)=CLint(mic)*liver microsomal protein (mg)/liver weight (g)*liver weight to body weight ratio
(§17) Liver microsomal protein (mg)/liver weight (g): the value is 45 in both animal and human species.
(§18) Liver weight to body weight ratio: the parameters for mice, rats and humans are 88, 40 and 20 g/kg respectively.

[3] = Metabolic stability in rat liver microsomes; format: in vitro ADME
Procedure: as §9, §10, §11, §12, §13, §14, §15, §16, §17, §18

[4] = Metabolic stability in human liver microsomes; format: in vitro ADME
Procedure: as §9, §10, §11, §12, §13, §14, §15, §16, §17, §18

HCT116 cells [5] = experiment: In vivo pharmacodynamic study of compound 18 in HCT116 tumor-bearing mice; parameters: species or system Balb/C Nude mice; details: 10 mg/kg once a day by gavage
Procedure: (§19) a. Establishment of tumor-bearing mouse model: HCT116 cells in the logarithmic growth phase were taken and cultured, the cells were collected and counted, and then subcutaneously inoculated into Balb/C Nude mice at 1×10^6/mouse. The tumor volume and body weight of the mice were measured regularly. 7 days after inoculation, mice with tumor volume of 150 mm3 were randomly divided into groups and treated with corresponding drugs.
(§20) 3. Data processing: All data were organized in EXCEL, and One-way ANOVA analysis and drawing were performed using GraphPad Prism 8.0 software. Statistical significance was achieved when p<0.05.
1. Experiment materials: Same as Test example 5.
a. Establishment of tumor-bearing mouse model: Same as Test example 5.
b. […] The administration was performed once a day by gavage for 7 consecutive days, and the tumor volume and body weight of the mice were measured regularly.
3. Data processing: Same as Test example 5.

HCT116 cells [6] = experiment: In vivo pharmacodynamic study of compound 1 in HCT116 tumor-bearing mice; parameters: species or system Balb/C Nude mice; details: 20 mg/kg once a day by gavage, vs sham group
Text: Balb/C Nude mice, SPF grade, male, weighing 18-20 g, were purchased from Jiangsu Gempharmatech Co., Ltd.
HCT116 cells were purchased from ATCC.
Matrigel Matrix, Cat. No. 354248, was purchased from Becton, Dickinson and Company.
Kolliphor® HS 15, Cat. No. 42966, was purchased from Sigma-Aldrich.
as §19
b. […] The administration was performed once a day by gavage for 21 consecutive days, and the tumor volume and body weight of the mice were measured regularly.
as §20

CN1CCN(c2ccc(OC(F)(F)F)c(Nc3ncc4ccc5c(C(N)=O)nn(CCF)c5c4n3)c2)CC1 [Compound 18]
Papp at 120 min [1]: 0.5 to 2.5 ×10⁻⁶ cm/s | Papp A→B at 120 min [1]: 2.03 ×10⁻⁶ cm/s | Papp B→A at 120 min [1]: 3.36 ×10⁻⁶ cm/s | Classification Efflux transporter substrate (Caco-2 cells): Very unlikely or not (ERa < 2.00) | 60 min remaining amount [2]: 4.32% | Clearance rate [2]: High | CLint scaled at 1 µM ([2]; mouse, pH 7.4): 409 mL/min/kg | half-life at 1 µM ([2]; mouse, pH 7.4): 13.4 min | microsomal CLint at 1 µM ([2]; mouse, pH 7.4, read-out: CLint(mic)): 103 µL/min/mg | 60 min remaining amount [3]: 2.74% | Clearance rate [3]: High | CLint scaled at 1 µM ([3]; rat, pH 7.4): 505 mL/min/kg | half-life at 1 µM ([3]; rat, pH 7.4): 4.94 min | microsomal CLint at 1 µM ([3]; rat, pH 7.4, read-out: CLint(mic)): 281 µL/min/mg | 60 min remaining amount [4]: 7.83% | Clearance rate [4]: High | CLint scaled at 1 µM ([4]; human, pH 7.4): 78.7 mL/min/kg | half-life at 1 µM ([4]; human, pH 7.4): 15.9 min | microsomal CLint at 1 µM ([4]; human, pH 7.4, read-out: CLint(mic)): 87.4 µL/min/mg | body weight decrease compared to before administration (HCT116 cells [5]; 5 days): 7.6% | body weight decrease compared to before administration (HCT116 cells [5]; 7 days): 16.1% | tumor inhibition rate (HCT116 cells [5]; 7 days, vs control group): 70.9%

CN1CCN(c2ccc(OC(F)(F)F)c(Nc3ncc4ccc5c(C(N)=O)nn(CCO)c5c4n3)c2)CC1 [Compound 1]
Papp at 120 min [1]: 0.5 to 2.5 ×10⁻⁶ cm/s | Papp A→B at 120 min [1]: 0.965 ×10⁻⁶ cm/s | Papp B→A at 120 min [1]: 20.8 ×10⁻⁶ cm/s | Classification Efflux transporter substrate (Caco-2 cells): Likely (ERa ≥ 2.00) | tumor inhibition rate (HCT116 cells [6]; 11 days): 82.0% | tumor inhibition rate (HCT116 cells [6]; 16 days): 86.5% | tumor inhibition rate (HCT116 cells [6]; 21 days): 88.3%
